The target in this test is T1, F508delCFTR (Homo sapiens, UniProt P13569, DEL508-508).
T1 construct: expressed in transfected cells; host or cells: CFBE41o- human lung derived epithelial cells (CFBE41o-F508delCFTR-HRP), doxycycline-inducible
The test can be described thus: Cell Surface Expression-Horse Radish Peroxidase (CSE-HRP) Assay.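 As to EC50 (with co-corrector): co-corrector chromenyl benzoic acid corrector at 2 or 3 µM.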 Type of test: cell-based. The settings on record: for Maximum % activity (with co-corrector) / Emax: maximum at any tested concentration; for Emax: read-out: Maximum % activity (without co-corrector). The method, then: A cellular assay for measuring the F508delCFTR cell surface expression after correction with test compounds either without or with a co-corrector (2 μM of 3-[(2R,4R)-4-({[1-(2,2-difluoro-1,3-benzodioxol-5-yl)cyclopropyl]carbonyl}amino)-7-methoxy-3,4-dihydro-2H-chromen-2-yl]benzoic acid), was developed in human lung derived epithelial cell line (CFBE4lo−) (Veit G et al, (2012) Mol Biol Cell. 23(21): 4188-4202). The development was achieved by expressing the F508delCFTR mutation along with a horseradish peroxidase (HRP) in the fourth exofacial loop, and then measuring the HRP activity using luminescence readout from these cells, CFBE410-F508delCFTR-HRP, that were incubated overnight with the test corrector compounds, either without or with the co-corrector. For this primary assay, the CFBE410-F508delCFTR-HRP cells were plated in 384-well plates (Greiner Bio-one; Cat 781080) at 4,000 cells/well along with 0.5 μg/mL doxycycline to induce the F508delCFTR-HRP expression and further incubated at 37° C., 5% CO2 for 68-72 hours. The test compounds were then added either without or with a co-corrector at the required concentrations and further incubated for 18-24 hours at 33° C. The highest concentration tested was 20 μM or 30 μM (GI-1 to GIII-36) with an 8-point concentration response curve using a 3-fold dilution in both the test compound without or with the co-corrector. Three replicate plates were run to determine one EC50. All plates contained negative controls (dimethyl sulfoxide, DMSO) and positive control (2 μM or 3 μM (GI-1 to GIII-36) of 3-[(2R,4R)-4-({[1-(2,2-difluoro-1,3-benzodioxol-5-yl)cyclopropyl]carbonyl}amino)-7-methoxy-3,4-dihydro-2H-chromen-2-yl]benzoic acid) as well as on-plate concentration response of the positive control. Post incubation, the plates were washed 5× times with Dulbecco's phosphate buffered saline (DPBS), followed by the addition of the HRP substrate, luminol (50 4), and measuring the HRP activity using luminescence readout on EnVision® Multilabel Plate Reader (Perkin Elmer; product number 2104-0010). The raw counts from the experiment were analyzed using Accelrys® Assay Explorer v3.3.
Z′ greater than 0.5 was used as passing quality control criteria for the plates.
The Z′ is defined as: 1−[3*SDPositve Control+3*SDNegative Control/Absolute(MeanPositive Control−MeanNegative Control)] wherein “SD” is standard deviation.
The % activity measured at each of the 8 test concentrations of the test compound added either without or with a co-corrector (2 μM or 3 μM (GI-1 to GIII-36) of 3-[(2R,4R)-4-({[1-(2,2-difluoro-1,3-benzodioxol-5-yl)cyclopropyl]carbonyl}amino)-7-methoxy-3,4-dihydro-2H-chromen-2-yl]benzoic acid) was normalized to the on-plate positive control using the following formulae: % activity (Test compound without co-corrector)=[(test compound without co-corrector response DMSO response)/(positive control response DMSO response)]*100 % activity (Test compound with co-corrector)=[(test compound with co-corrector response DMSO response)/(positive control response DMSO response)]*100
The maximum % activity achieved for the test compound either without or with a co-corrector at any tested concentration is presented in Table 6 along with the respective EC50's calculated using the following general sigmoidal curve with variable Hill slope equation (described as Model 42 in the Accelrys® Assay Explorer v3.3 software): y=(a−d)/(1+(x/c)b)+d
General sigmoidal curve with concentration, response, top, bottom, EC50 and Hill slope. This model describes a sigmoidal curve with an adjustable baseline, a. The equation can be used to fit curves where response is either increasing or decreasing with respect to the independent variable, “x”.
“x” is a concentration of drug under test.
“a” is the maximum response, and “d” is the minimum response
“c” is the inflection point (EGO for the curve. That is, “y” is halfway between the lower and upper asymptotes when x=c.
“b” is the slope-factor or Hill coefficient. […]

The mark [1] stands for this setting: test compound alone, without co-corrector, read-out: EC50 (without co-corrector).
Where [2] appears, read: with co-corrector, read-out: EC50 (with co-corrector).
[3] abbreviates: test compound with co-corrector.
Setting [4] is: test compound with co-corrector, read-out: EC50 (with co-corrector).
The mark [5] stands for this setting: test compound without co-corrector.
Where [6] appears, read: test compound without co-corrector, read-out: EC50 (without co-corrector).

Each structure is given as a SMILES string. Where two headings read alike, the source gives them in different places.

T1 sequence (P13569 with tags, fused parts or gaps DEL508-508): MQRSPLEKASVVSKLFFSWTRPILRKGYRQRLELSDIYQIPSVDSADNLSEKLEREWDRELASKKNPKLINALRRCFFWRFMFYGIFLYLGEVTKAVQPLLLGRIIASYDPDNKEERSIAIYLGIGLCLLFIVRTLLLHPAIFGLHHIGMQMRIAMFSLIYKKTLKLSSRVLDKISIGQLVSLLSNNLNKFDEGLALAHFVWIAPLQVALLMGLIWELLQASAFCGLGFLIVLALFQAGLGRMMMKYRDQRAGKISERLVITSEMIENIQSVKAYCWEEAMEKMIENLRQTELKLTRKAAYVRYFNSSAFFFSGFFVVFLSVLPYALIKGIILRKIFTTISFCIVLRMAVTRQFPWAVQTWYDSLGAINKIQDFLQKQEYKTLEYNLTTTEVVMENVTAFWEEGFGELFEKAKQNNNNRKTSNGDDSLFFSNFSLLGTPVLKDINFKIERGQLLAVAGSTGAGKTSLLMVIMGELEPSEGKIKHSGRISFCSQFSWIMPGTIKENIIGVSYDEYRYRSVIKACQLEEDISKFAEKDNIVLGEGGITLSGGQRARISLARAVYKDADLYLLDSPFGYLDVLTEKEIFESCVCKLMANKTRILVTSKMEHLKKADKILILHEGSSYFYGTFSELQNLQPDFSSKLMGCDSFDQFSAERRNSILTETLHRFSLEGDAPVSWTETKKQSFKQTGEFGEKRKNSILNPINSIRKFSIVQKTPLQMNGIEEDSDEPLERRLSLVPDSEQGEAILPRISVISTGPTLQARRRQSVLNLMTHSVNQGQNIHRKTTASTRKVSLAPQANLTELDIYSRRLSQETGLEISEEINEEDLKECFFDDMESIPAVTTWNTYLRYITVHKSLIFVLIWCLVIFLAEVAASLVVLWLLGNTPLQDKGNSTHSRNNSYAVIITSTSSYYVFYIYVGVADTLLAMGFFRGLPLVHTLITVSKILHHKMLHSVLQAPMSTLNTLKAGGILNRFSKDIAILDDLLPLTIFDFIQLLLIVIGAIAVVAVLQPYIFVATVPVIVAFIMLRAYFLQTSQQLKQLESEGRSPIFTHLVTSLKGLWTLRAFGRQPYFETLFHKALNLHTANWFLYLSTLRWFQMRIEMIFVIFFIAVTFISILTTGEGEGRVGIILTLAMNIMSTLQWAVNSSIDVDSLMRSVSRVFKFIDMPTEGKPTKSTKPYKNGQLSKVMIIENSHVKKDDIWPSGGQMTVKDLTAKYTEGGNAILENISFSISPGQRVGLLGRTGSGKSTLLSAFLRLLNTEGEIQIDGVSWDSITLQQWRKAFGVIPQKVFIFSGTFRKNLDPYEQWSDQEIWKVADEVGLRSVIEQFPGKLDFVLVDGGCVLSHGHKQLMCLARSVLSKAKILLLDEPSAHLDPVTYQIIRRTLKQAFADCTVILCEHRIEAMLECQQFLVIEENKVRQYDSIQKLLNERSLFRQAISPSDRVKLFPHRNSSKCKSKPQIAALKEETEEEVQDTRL

For the compound `COc1cc(C2(C(=O)NS(=O)(=O)c3cccc4ncccc34)CC2)c(OC(C)C)cn1` [Example GI-16, 1-{2-methoxy-5-[(propan-2-yl)oxy]pyridin-4-yl}-N-(quinoline-5-sulfonyl)cyclopropane-1-carboxamide], the EC50 (as a rule, the concentration needed to bring the measured effect to its halfway point) by setting is: under setting [1], 3 to 10 µM; under setting [2], below 3 µM. For the same compound, where the note is “with co-corrector”, the “Maximum % activity (with co-corrector)” value is “+++ (≥350)”. In addition, the Emax (without co-corrector) was above 150%.
On the same counts, the results for `COc1cc(OC(C)C)c(C2(C(=O)NS(=O)(=O)c3cccc4ncccc34)CC2)cn1` [Example GI-17, 1-{6-methoxy-4-[(propan-2-yl)oxy]pyridin-3-yl}-N-(quinoline-5-sulfonyl)cyclopropane-1-carboxamide] are 3 to 10 µM, below 3 µM, “+++ (≥350)” and above 150%.
The like results for `COc1cc(OC(C)C)c(C2(C(=O)NS(=O)(=O)c3cccc4nc(C)ccc34)CC2)cn1` [Example GI-18, 1-{6-methoxy-4-[(propan-2-yl)oxy]pyridin-3-yl}-N-(2-methylquinoline-5-sulfonyl)cyclopropane-1-carboxamide] were, in that order, 3 to 10 µM, below 3 µM, “+++ (≥350)” and above 150%.
On the same counts, the results for `COc1cc(C2(C(=O)NS(=O)(=O)c3cccc4ncccc34)CC2)c(OCC(C)C)cn1` [Example GI-19, 1-[2-methoxy-5-(2-methylpropoxy)pyridin-4-yl]-N-(quinoline-5-sulfonyl)cyclopropane-1-carboxamide] are 3 to 10 µM, below 3 µM, “+++ (≥350)” and above 150%.
For `COc1cc(C2(C(=O)NS(=O)(=O)c3cccc4nc(C)ccc34)CC2)c(OCC(C)C)cn1` [Example GI-20, 1-[2-methoxy-5-(2-methylpropoxy)pyridin-4-yl]-N-(2-methylquinoline-5-sulfonyl)cyclopropane-1-carboxamide], the EC50 reads like this: under setting [1], below 3 µM; under setting [2], below 3 µM. Also, the “Maximum % activity (with co-corrector)” value (with co-corrector) is “+++ (≥350)”. In addition, the Emax (without co-corrector) was above 150%.
For the compound `COc1cc(C2(C(=O)NS(=O)(=O)c3cccc4[nH]ccc34)CC2)c(OCC(C)C)cn1` [Example GI-21, N-(1H-indole-4-sulfonyl)-1-[2-methoxy-5-(2-methylpropoxy)pyridin-4-yl]cyclopropane-1-carboxamide], the EC50 is below 3 µM under setting [1] and below 3 µM under setting [2]. The “Maximum % activity (with co-corrector)” value (with co-corrector) was “+++ (≥350)”. The Emax (without co-corrector) was above 150%.
Consider `CC(C)Oc1ncc(C2CCC2)cc1C1(C(=O)NS(=O)(=O)c2cccc3ncccc23)CC1` [Example GI-22, 1-{5-cyclobutyl-2-[(propan-2-yl)oxy]pyridin-3-yl}-N-(quinoline-5-sulfonyl)cyclopropane-1-carboxamide], for which the EC50 is below 3 µM under setting [1] and below 3 µM under setting [2]. Also, under “with co-corrector”, the “Maximum % activity (with co-corrector)” value is on record as “+++ (≥350)”. In addition, the Emax (without co-corrector) is above 150%.
With `Cc1ccc2c(S(=O)(=O)NC(=O)C3(c4cc(C5CCC5)cnc4OC(C)C)CC3)cccc2n1` [Example GI-23, 1-{5-cyclobutyl-2-[(propan-2-yl)oxy]pyridin-3-yl}-N-(2-methylquinoline-5-sulfonyl)cyclopropane-1-carboxamide], the EC50 reads like this: under setting [1], below 3 µM; under setting [2], below 3 µM. Besides, the “Maximum % activity (with co-corrector)” value (with co-corrector) is “+++ (≥350)”. Further, the Emax (without co-corrector) is above 150%.
As for `CC(C)Oc1ncc(C2CCC2)cc1C1(C(=O)NS(=O)(=O)c2cccc3[nH]ccc23)CC1` [Example GI-24, 1-{5-cyclobutyl-2-[(propan-2-yl)oxy]pyridin-3-yl}-N-(1H-indole-4-sulfonyl)cyclopropane-1-carboxamide], the EC50 was below 3 µM under setting [1] and below 3 µM under setting [2]. Under “with co-corrector”, the “Maximum % activity (with co-corrector)” value is on record as “+++ (≥350)”. Further, the Emax (without co-corrector) was above 150%.
As for `CC(C)Oc1cnc(C2CCC2)cc1C1(C(=O)NS(=O)(=O)c2cccc3ncccc23)CC1` [Example GI-25, 1-{2-cyclobutyl-5-[(propan-2-yl)oxy]pyridin-4-yl}-N-(quinoline-5-sulfonyl)cyclopropane-1-carboxamide], the EC50 under setting [1] fell in the range of 3 to 10 µM and the EC50 under setting [2] was below 3 µM. Moreover, for the setting “with co-corrector”, the “Maximum % activity (with co-corrector)” value was “+++ (≥350)”. Further, where the note is “without co-corrector”, the Emax is above 150%.
On the same counts, the results for `Cc1ccc2c(S(=O)(=O)NC(=O)C3(c4cc(C5CCC5)ncc4OC(C)C)CC3)cccc2n1` [Example GI-26, 1-{2-cyclobutyl-5-[(propan-2-yl)oxy]pyridin-4-yl}-N-(2-methylquinoline-5-sulfonyl)cyclopropane-1-carboxamide] are 3 to 10 µM, below 3 µM, “+++ (≥350)” and above 150%.
On the same counts, the results for `CC(C)Oc1cnc(C2CCC2)cc1C1(C(=O)NS(=O)(=O)c2cccc3[nH]ccc23)CC1` [Example GI-27, 1-{2-cyclobutyl-5-[(propan-2-yl)oxy]pyridin-4-yl}-N-(1H-indole-4-sulfonyl)cyclopropane-1-carboxamide] are 3 to 10 µM, below 3 µM, “+++ (≥350)” and above 150%.
On the same counts, the results for `O=C(NS(=O)(=O)c1cccc2ncccc12)C1(c2cc(C3CCC3)cnc2N2CCCC2)CC1` [Example GI-28, 1-[5-cyclobutyl-2-(pyrrolidin-1-yl)pyridin-3-yl]-N-(quinoline-5-sulfonyl)cyclopropane-1-carboxamide] are 3 to 10 µM, below 3 µM, “+++ (≥350)” and above 150%.
For `Cc1ccc2c(S(=O)(=O)NC(=O)C3(c4cc(C5CCC5)cnc4N4CCCC4)CC3)cccc2n1` [Example GI-29, 1-[5-cyclobutyl-2-(pyrrolidin-1-yl)pyridin-3-yl]-N-(2-methylquinoline-5-sulfonyl)cyclopropane-1-carboxamide], under setting [3], the “Maximum % activity (with co-corrector)” value is “+++ (≥350)”. Also, the EC50 is below 3 µM under setting [4] and below 3 µM under setting [6]. Moreover, the Emax under setting [5] is above 150%.
For the compound `O=C(NS(=O)(=O)c1cccc2[nH]ccc12)C1(c2cc(C3CCC3)cnc2N2CCCC2)CC1` [Example GI-30, 1-[5-cyclobutyl-2-(pyrrolidin-1-yl)pyridin-3-yl]-N-(1H-indole-4-sulfonyl)cyclopropane-1-carboxamide], under setting [3], the “Maximum % activity (with co-corrector)” value is “+++ (≥350)”. The EC50 is below 3 µM under setting [4] and below 3 µM under setting [6]. Further, the Emax under setting [5] is above 150%.
Consider `O=C(NS(=O)(=O)c1cccc2c1CCCN2)C1(c2cc(C3CCC3)cnc2N2CCCC2)CC1` [Example GI-31, 1-[5-cyclobutyl-2-(pyrrolidin-1-yl)pyridin-3-yl]-N-(1,2,3,4-tetrahydroquinoline-5-sulfonyl)cyclopropane-1-carboxamide], for which the “Maximum % activity (with co-corrector)” value under setting [3] is on record as “+++ (≥350)”. The EC50 under setting [4] is below 3 µM and the EC50 under setting [6] was below 3 µM. Also, the Emax under setting [5] is above 150%.

(Values after patent US10829473B2, “Modulators of the cystic fibrosis transmembrane conductance regulator protein and methods of use” (AbbVie Overseas S.Á.R.L., priority 2017, dated 2020).)
